Data: patent US20230085945A1, “ORTHOGONAL SAFETY SWITCHES TO ELIMINATE GENETICALLY ENGINEERED CELLS” (The Board of Trustees of the Leland Stanford Junior …, priority 2020, published 2023)

Experiments:
[1] = tested on: NANOG^iCasp9-YFP hPSCs transplanted subcutaneously (teratomas); assay: In vivo teratoma formation after AP20 pre-treatment of hPSCs (bioluminescent imaging); parameters: species or system NOD-SCID Il2rg^−/− mice; conditions: 5×10^5 hPSCs pre-treated with 1 nM AP20 for 24 hours, subcutaneous transplantation
Description: (§1) FIG. 3: Implementation of the NANOG^iCasp9-YFP safety switch. A) Schema depicting how drug AP20187 induces dimerization of Caspase9 in undifferentiated NANOG^iCasp9-YFP hESCs, subsequently triggering cell death (top left). NANOG^iCasp9-YFP hESCs were treated for 24 hours with increasing concentrations of AP20187. AP20187 was withdrawn, and cultures were further grown in mTeSR1 to allow any surviving hESCs to grow; any surviving colonies were counted 1 week later (top right). Alkaline phosphatase staining of whole wells of a 12-well plate after 24-hour treatment with AP20187 (bottom). […] Bioluminescent imaging of mice occurred weekly for 5 weeks with no transplant control (NTC) animals included for relative luminescence normalization. Total flux (photons/sec) was measured for each animal and averaged. […] The percentage of surviving cells was calculated relative to untreated controls. […]
Given that very small numbers of hPSCs (10,000) are sufficient to form teratomas in vivo, we tested the lower bounds of this system to test whether any rare hPSCs survived drug treatment and whether they could form teratomas. […] We used bioluminescent imaging (using the AkaLuciferase system) to determine if micro-teratomas might form, rather than visual inspection of subcutaneous nodules, because bioluminescent imaging is more sensitive and quantitative. […]

[2] = tested on: NANOG-YFP^+ hPSCs mixed with hPSC-derived sclerotome cells; assay: Ablation of undifferentiated hPSCs in a heterogeneous cell population (hPSCs spiked into day-5 sclerotome cells); type: cell-based, human
Description: as §1
Flow cytometric quantification of viable cells—NANOG^iCasp9-YFP hESCs were dissociated into single cells with Accutase and 1×10^6 cells were plated per well in a 6-well plate pre-coated with Matrigel. […] Subsequently, to quantify the percentage of surviving cells, the cultures were dissociated with TrypLE Express. […] YFP^+ (i.e., NANOG^+) cells were analyzed (Beckman Coulter CytoFlex Analyzer) to count live cells for both untreated and AP20187-treated groups. […]

With `CC[C@H](C(=O)N1CCCC[C@H]1C(=O)O[C@H](CCc1ccc(OC)c(OC)c1)c1cccc(OCC(=O)NCC(CNC(=O)COc2cccc([C@@H](CCc3ccc(OC)c(OC)c3)OC(=O)[C@@H]3CCCCN3C(=O)[C@@H](CC)c3cc(OC)c(OC)c(OC)c3)c2)CN(C)C)c1)c1cc(OC)c(OC)c(OC)c1` [AP20] the “mice that formed teratomas” value [1] was 0/14, the “decrease in NANOG-YFP^+ cells” value ([2]; 10% undifferentiated hPSCs in day-5 sclerotome progenitors, AP20 for last 24 hours) was > 10 fold and the “colony formation of surviving FACS-purified NANOG-YFP^+ cells” value ([2]; continued culture in hPSC media after AP20) was “did not form colonies”.
